Data taken from PubChem BioAssay (NCI).
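Tested at 5 concentrations; 48 h exposure; 96-well plates; endpoints linearly interpolated, else capped at highest concentration. TGI marks complete inhibition of growth.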

Assays:
Test in all cases: inhibition of tumour cell growth, NCI panel, 48 h
LOX IMVI melanoma = tested on: LOX IMVI melanoma
LXFL 529 NSCLC = tested on: LXFL 529 NSCLC
SR leukemia = tested on: SR leukemia
SNB-78 CNS = tested on: SNB-78 CNS
HCC-2998 colon = tested on: HCC-2998 colon
MOLT-4 leukemia = tested on: MOLT-4 leukemia
HCT-116 colon = tested on: HCT-116 colon
OVCAR-4 ovarian = tested on: OVCAR-4 ovarian
M14 melanoma = tested on: M14 melanoma
RXF-631 renal = tested on: RXF-631 renal
HCT-15 colon = tested on: HCT-15 colon
HOP-18 NSCLC = tested on: HOP-18 NSCLC
UACC-257 melanoma = tested on: UACC-257 melanoma
M19-MEL melanoma = tested on: M19-MEL melanoma
DMS 114 small cell lung = tested on: DMS 114 small cell lung
HOP-62 NSCLC = tested on: HOP-62 NSCLC
NCI-H460 lung = tested on: NCI-H460 lung
KM12 colon = tested on: KM12 colon
786-0 renal = tested on: 786-0 renal
HOP-92 NSCLC = tested on: HOP-92 NSCLC
UACC-62 melanoma = tested on: UACC-62 melanoma
CAKI-1 renal = tested on: CAKI-1 renal
HL-60(TB) leukemia = tested on: HL-60(TB) leukemia
U251 CNS = tested on: U251 CNS
NCI-H522 lung = tested on: NCI-H522 lung
A498 renal = tested on: A498 renal
DLD-1 colon = tested on: DLD-1 colon
OVCAR-5 ovarian = tested on: OVCAR-5 ovarian
SNB-19 CNS = tested on: SNB-19 CNS
A549 NSCLC = tested on: A549 NSCLC
UO-31 renal = tested on: UO-31 renal
MALME-3M melanoma = tested on: MALME-3M melanoma
OVCAR-8 ovarian = tested on: OVCAR-8 ovarian
TK-10 renal = tested on: TK-10 renal
SNB-75 CNS = tested on: SNB-75 CNS
SN12C renal = tested on: SN12C renal
RPMI-8226 leukemia = tested on: RPMI-8226 leukemia
COLO 205 colon = tested on: COLO 205 colon
SF-268 CNS = tested on: SF-268 CNS
SF-539 CNS = tested on: SF-539 CNS
KM20L2 colon = tested on: KM20L2 colon
IGROV1 ovarian = tested on: IGROV1 ovarian
RXF 393 renal = tested on: RXF 393 renal
NCI-H226 lung = tested on: NCI-H226 lung
NCI-H23 lung = tested on: NCI-H23 lung
SF-295 CNS = tested on: SF-295 CNS
SK-OV-3 ovarian = tested on: SK-OV-3 ovarian
SK-MEL-28 melanoma = tested on: SK-MEL-28 melanoma
OVCAR-3 ovarian = tested on: OVCAR-3 ovarian
SK-MEL-5 melanoma = tested on: SK-MEL-5 melanoma
DMS 273 small cell lung = tested on: DMS 273 small cell lung
ACHN renal = tested on: ACHN renal
SK-MEL-2 melanoma = tested on: SK-MEL-2 melanoma
K-562 leukemia = tested on: K-562 leukemia
EKVX NSCLC = tested on: EKVX NSCLC
HT29 colon = tested on: HT29 colon
CCRF-CEM leukemia = tested on: CCRF-CEM leukemia
SW-620 colon = tested on: SW-620 colon

COC(=O)N/N=C(\C)c1sc(-c2nc(C)c(/C(C)=N/NC(=O)OC)s2)nc1C
TGI (LOX IMVI melanoma): > 100 µM | TGI (LXFL 529 NSCLC): > 100 µM | TGI (SR leukemia): 45.7 µM | TGI (SNB-78 CNS): > 100 µM | TGI (HCC-2998 colon): > 100 µM | TGI (MOLT-4 leukemia): > 100 µM | TGI (HCT-116 colon): > 100 µM | TGI (OVCAR-4 ovarian): > 100 µM | TGI (M14 melanoma): > 100 µM | TGI (RXF-631 renal): > 100 µM | TGI (HCT-15 colon): > 100 µM | TGI (HOP-18 NSCLC): > 100 µM | TGI (UACC-257 melanoma): > 100 µM | TGI (M19-MEL melanoma): > 100 µM | TGI (DMS 114 small cell lung): > 100 µM | TGI (HOP-62 NSCLC): > 100 µM | TGI (NCI-H460 lung): > 100 µM | TGI (KM12 colon): > 100 µM | TGI (786-0 renal): > 100 µM | TGI (HOP-92 NSCLC): > 100 µM | TGI (UACC-62 melanoma): > 100 µM | TGI (CAKI-1 renal): > 100 µM | TGI (HL-60(TB) leukemia): > 100 µM | TGI (U251 CNS): > 100 µM | TGI (NCI-H522 lung): > 100 µM | TGI (A498 renal): > 100 µM | TGI (DLD-1 colon): > 100 µM | TGI (OVCAR-5 ovarian): > 100 µM | TGI (SNB-19 CNS): > 100 µM | TGI (A549 NSCLC): > 100 µM | TGI (UO-31 renal): > 100 µM | TGI (MALME-3M melanoma): > 100 µM | TGI (OVCAR-8 ovarian): > 100 µM | TGI (TK-10 renal): > 100 µM | TGI (SNB-75 CNS): > 100 µM | TGI (SN12C renal): > 100 µM | TGI (RPMI-8226 leukemia): > 100 µM | TGI (COLO 205 colon): > 100 µM | TGI (SF-268 CNS): > 100 µM | TGI (SF-539 CNS): > 100 µM | TGI (KM20L2 colon): > 100 µM | TGI (IGROV1 ovarian): > 100 µM | TGI (RXF 393 renal): > 100 µM | TGI (NCI-H226 lung): > 100 µM | TGI (NCI-H23 lung): > 100 µM | TGI (SF-295 CNS): > 100 µM | TGI (SK-OV-3 ovarian): > 100 µM | TGI (SK-MEL-28 melanoma): > 100 µM | TGI (OVCAR-3 ovarian): > 100 µM | TGI (SK-MEL-5 melanoma): > 100 µM | TGI (DMS 273 small cell lung): > 100 µM | TGI (ACHN renal): > 100 µM | TGI (SK-MEL-2 melanoma): > 100 µM | TGI (K-562 leukemia): > 100 µM | TGI (EKVX NSCLC): > 100 µM | TGI (HT29 colon): > 100 µM | TGI (CCRF-CEM leukemia): > 100 µM

CN(C)CCNC(=O)c1cccc2c1nc(-c1cccnc1)c1ccccc12
TGI (LOX IMVI melanoma): 12.6 µM | TGI (SNB-78 CNS): 26.3 µM | TGI (HCC-2998 colon): 20.2 µM | TGI (MOLT-4 leukemia): 6.32 µM | TGI (HCT-116 colon): 13.8 µM | TGI (OVCAR-4 ovarian): 18.4 µM | TGI (M14 melanoma): 19.9 µM | TGI (RXF-631 renal): 16.7 µM | TGI (HCT-15 colon): 20.1 µM | TGI (HOP-18 NSCLC): 64 µM | TGI (UACC-257 melanoma): 16.1 µM | TGI (M19-MEL melanoma): 18.5 µM | TGI (DMS 114 small cell lung): 18.8 µM | TGI (HOP-62 NSCLC): 22.3 µM | TGI (NCI-H460 lung): 12.5 µM | TGI (KM12 colon): 46.5 µM | TGI (786-0 renal): 24.6 µM | TGI (HOP-92 NSCLC): 19.1 µM | TGI (UACC-62 melanoma): 15.2 µM | TGI (CAKI-1 renal): 85.7 µM | TGI (HL-60(TB) leukemia): 28.8 µM | TGI (U251 CNS): 24 µM | TGI (A498 renal): 15.7 µM | TGI (DLD-1 colon): 21.2 µM | TGI (OVCAR-5 ovarian): 34 µM | TGI (SNB-19 CNS): 36.8 µM | TGI (A549 NSCLC): 18.3 µM | TGI (UO-31 renal): 10.8 µM | TGI (SW-620 colon): 25.3 µM | TGI (OVCAR-8 ovarian): 54.8 µM | TGI (TK-10 renal): 9.74 µM | TGI (SNB-75 CNS): 22 µM | TGI (SN12C renal): 35.4 µM | TGI (COLO 205 colon): 16.4 µM | TGI (SF-268 CNS): 22.2 µM | TGI (SF-539 CNS): 10.7 µM | TGI (IGROV1 ovarian): 26.3 µM | TGI (RXF 393 renal): 17.1 µM | TGI (NCI-H226 lung): 16.5 µM | TGI (NCI-H23 lung): 15.9 µM | TGI (SF-295 CNS): 20.1 µM | TGI (SK-OV-3 ovarian): 31.2 µM | TGI (SK-MEL-28 melanoma): 23.6 µM | TGI (OVCAR-3 ovarian): 42 µM | TGI (SK-MEL-5 melanoma): 15.1 µM | TGI (DMS 273 small cell lung): 14.2 µM | TGI (ACHN renal): 14.4 µM | TGI (SK-MEL-2 melanoma): 22.8 µM | TGI (K-562 leukemia): 65.4 µM | TGI (EKVX NSCLC): 18.8 µM | TGI (HT29 colon): 26.9 µM | TGI (CCRF-CEM leukemia): 43.5 µM
